Results published in paper PMC5684193 (2017).

What was measured:
[1] = test system: CBA-1-strand21 (DNA, aptamer) GGGGGTGGGTCGGGAGGGAACCCCCTTGGGGGTGCGGG; assay: ITC; settings: 140 mM NaCl, 2.5 mM KCl, K/Na phosphate (PBS), 2.5 mM MgCl2; PBS with MgCl2, pH 7.4, 25 °C; 250 µM codeine in syringe
[2] = test system: CBA-1-strand3 (DNA, aptamer) CCCCCTGGGTCGGGAGGGAAGGGGGTTTATATTGCGGG; assay: ITC; settings: 140 mM NaCl, 2.5 mM KCl, K/Na phosphate (PBS), 2.5 mM MgCl2; PBS with MgCl2, pH 7.4, 25 °C; 250 µM codeine in syringe
[3] = test system: CBA-1-AAT (DNA, aptamer) TTTCCCCCTGGGTCGGGAGGGAAGGGGGAAATTAAAGGGGGTGCGGG; assay: ITC; settings: 140 mM NaCl, 2.5 mM KCl, K/Na phosphate (PBS), 2.5 mM MgCl2; PBS with MgCl2, pH 7.4, 25 °C
[4] = test system: CBA-1-GGC (DNA, aptamer) CCCCCCCCTGGGTCGGGAGGGAAGGGGGGGGTTGGGGGGGGTGCGGG; assay: ITC; settings: 140 mM NaCl, 2.5 mM KCl, K/Na phosphate (PBS), 2.5 mM MgCl2; PBS with MgCl2, pH 7.4, 25 °C
[5] = test system: CBA-1-GGC-4G4 (DNA, aptamer) CCCCCCCCTGGGGTCGGGGAGGGGAAGGGGGGGGTTGGGGGGGGTGCGGGG; assay: ITC; settings: 140 mM NaCl, 2.5 mM KCl, K/Na phosphate (PBS), 2.5 mM MgCl2; PBS with MgCl2, pH 7.4, 25 °C
[6] = test system: CBA-1 (DNA, aptamer) CCCCCTGGGTCGGGAGGGAAGGGGGTTGGGGGTGCGGG; assay: ITC; settings: 140 mM NaCl, 2.5 mM KCl, K/Na phosphate (PBS), 2.5 mM MgCl2; PBS with MgCl2, pH 7.4, 25 °C
[7] = test system: CBA-1-G34C35R (DNA, aptamer) CCCCCTGGGTCGGGAGGGAAGGGGGTTGGGGGTGGG; assay: ITC; settings: 140 mM NaCl, 2.5 mM KCl, K/Na phosphate (PBS), 2.5 mM MgCl2; PBS with MgCl2, pH 7.4, 25 °C; 250 µM codeine in syringe
[8] = test system: CBA-1-1/CBA-1-2 (DNA, aptamer) CCCCCTGGGTCGGGAGGGAAGGGGGT/TGGGGGTGCGGG; assay: 1H NMR; settings: 140 mM NaCl, 2.5 mM KCl, K/Na phosphate (PBS), 10% D2O, 25 °C, 200 µM DNA, 400 µM codeine
[9] = test system: CBA-1-1/CBA-1-2 (DNA, aptamer) CCCCCTGGGTCGGGAGGGAAGGGGGT/TGGGGGTGCGGG; assay: UV melting at 265 nm; settings: 140 mM NaCl, 2.5 mM KCl, K/Na phosphate (PBS), 2.5 mM MgCl2; PBS with MgCl2, pH 7.4
[10] = test system: CBA-1-G34T (DNA, aptamer) CCCCCTGGGTCGGGAGGGAAGGGGGTTGGGGGTTCGGG; assay: ITC; settings: 140 mM NaCl, 2.5 mM KCl, K/Na phosphate (PBS), 2.5 mM MgCl2; PBS with MgCl2, pH 7.4, 25 °C
[11] = test system: CBA-1-G14A (DNA, aptamer) CCCCCTGGGTCGGAAGGGAAGGGGGTTGGGGGTGCGGG; assay: ITC; settings: 140 mM NaCl, 2.5 mM KCl, K/Na phosphate (PBS), 2.5 mM MgCl2; PBS with MgCl2, pH 7.4, 25 °C
[12] = test system: FAM-labeled CBA-1 (DNA, aptamer) CCCCCTGGGTCGGGAGGGAAGGGGGTTGGGGGTGCGGG; assay: DMS footprinting; settings: 140 mM NaCl, 2.5 mM KCl, K/Na phosphate (PBS), 2.5 mM MgCl2; binding buffer, room temperature
[13] = test system: CBA-1-A14AP (DNA, aptamer, 2-aminopurine at 14) CCCCCTGGGTCGGGAGGGAAGGGGGTTGGGGGTGCGGG; assay: 2-aminopurine fluorescence quenching; settings: 140 mM NaCl, 2.5 mM KCl, K/Na phosphate (PBS), 2.5 mM MgCl2; 1 µM codeine, 25 °C
[14] = test system: CBA-1-G34R (DNA, aptamer) CCCCCTGGGTCGGGAGGGAAGGGGGTTGGGGGTCGGG; assay: ITC; settings: 140 mM NaCl, 2.5 mM KCl, K/Na phosphate (PBS), 2.5 mM MgCl2; PBS with MgCl2, pH 7.4, 25 °C; 250 µM codeine in syringe
[15] = test system: CBA-1-A15AP (DNA, aptamer, 2-aminopurine at 15) CCCCCTGGGTCGGGAGGGAAGGGGGTTGGGGGTGCGGG; assay: 2-aminopurine fluorescence quenching; settings: 140 mM NaCl, 2.5 mM KCl, K/Na phosphate (PBS), 2.5 mM MgCl2; 1 µM codeine, 25 °C
[16] = test system: CBA-1-A20AP (DNA, aptamer, 2-aminopurine at 20) CCCCCTGGGTCGGGAGGGAAGGGGGTTGGGGGTGCGGG; assay: 2-aminopurine fluorescence quenching; settings: 140 mM NaCl, 2.5 mM KCl, K/Na phosphate (PBS), 2.5 mM MgCl2; 1 µM codeine, 25 °C
[17] = test system: CBA-1-3G3T (DNA, aptamer) CCCCCTTTTTCTTTATTTAAGGGGGTTGGGGGTGCTTT; assay: ITC; settings: 140 mM NaCl, 2.5 mM KCl, K/Na phosphate (PBS), 2.5 mM MgCl2; PBS with MgCl2, pH 7.4, 25 °C; 250 µM codeine in syringe
[18] = test system: CBA-1-strand1 (DNA, aptamer) AAAAATGGGTCGGGAGGGAAGGGGGTTGGGGGTGCGGG; assay: ITC; settings: 140 mM NaCl, 2.5 mM KCl, K/Na phosphate (PBS), 2.5 mM MgCl2; PBS with MgCl2, pH 7.4, 25 °C; 250 µM codeine in syringe
[19] = test system: FAM-labeled CBA-0 (DNA, aptamer) CCCCCTGGGTCGGGAGGGAAGGGGGTTGGGGGTGCGG; assay: DMS footprinting; settings: 140 mM NaCl, 2.5 mM KCl, K/Na phosphate (PBS), 2.5 mM MgCl2; binding buffer, room temperature
[20] = test system: CBA-1 (DNA, aptamer) CCCCCTGGGTCGGGAGGGAAGGGGGTTGGGGGTGCGGG; assay: UV melting at 265 nm; settings: 140 mM NaCl, 2.5 mM KCl, K/Na phosphate (PBS), 2.5 mM MgCl2; PBS with MgCl2, pH 7.4; 4 µM DNA, 8 µM codeine
[21] = test system: CBA-0 (DNA, aptamer) CCCCCTGGGTCGGGAGGGAAGGGGGTTGGGGGTGCGG; assay: ITC; settings: 140 mM NaCl, 2.5 mM KCl, K/Na phosphate (PBS), 2.5 mM MgCl2; PBS with MgCl2, pH 7.4, 25 °C

binding [1]: no
binding [2]: no
Kd [3]: 0.07 ± 0.03 µM
Kd [4]: 0.05 ± 0.02 µM
Kd [5]: 0.30 ± 0.17 µM
Kd [6]: 0.07 ± 0.01 µM
binding [7]: no
binding [8]: yes
∆Tm [9]: ~ 4 °C
binding [10]: weak
binding [11]: yes
binding [12]: yes
binding [13]: yes
binding [14]: no
binding [15]: yes
binding [16]: yes
binding [17]: no
binding [18]: no
binding [19]: yes
binding [20]: yes
Kd [21]: 0.25 ± 0.08 µM
SMILES: COc1ccc2c3c1O[C@H]1[C@@H](O)C=C[C@H]4[C@@H](C2)N(C)CC[C@@]341
